Laboratory results from the NIST ThermoML archive (doi:10.1016/j.jct.2017.05.041).
± gives the expanded uncertainty stated by the source.

Settings: 293 K; 101.33 kPa; Crystal; X-ray diffraction

| Structure (SMILES) | mass density [kg/m3] |
| --- | --- |
| NCC1(CC(=O)O)CCCCC1.O [2-(1-(aminomethyl)cyclohexyl)acetic acid monohydrate] | 1210 ± 12 |
| NCC1(CC(=O)O)CCCCC1 [2-(1-(aminomethyl)cyclohexyl)acetic acid] | 1239 ± 10 |
